Key:
CDK12/CycK = CDK12/CycK (Homo sapiens, UniProt Q9NYV4); assay: CDK12/CycK high ATP kinase assay (TR-FRET, 2 mM ATP); format: biochemical; settings: 2 mM ATP (high ATP); median; read-out: CDK12/CyclinK, 2 mM ATP (high ATP), IC50-[mol/l] (median)
Summary of the method: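 Read-out is TR-FRET (Eu-anti-rabbit IgG, anti-phospho-c-Myc Ser62 antibody, streptavidin-XL665) after EDTA stop. Reaction ran 60 min at 22 °C using 1 µM biotin-peptide and high ATP (2 mM) with roughly 0.75 nM recombinant CDK12/CycK, after 15 min compound pre-binding; normalised emission ratios yield IC50.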

[1] = test system: CAL-120, human breast adenocarcinoma cells; assay: Proliferation assay CAL-120 (crystal violet, 4 days); format: cell-based; settings: Homo sapiens, CAL-120, 96 h, CAL-120 cells, median, read-out: Prolif-CAL-120, IC50-[mol/l] (median)
Summary of the method: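 IC50 from a 4-parameter fit of crystal violet absorbance (595 nm), scaled between the day-of-dosing plate (0%) and vehicle cells (100%). MDA-MB-231 or CAL-120 cells were treated for 4 days with 0.01–10 micromol/L compound in 0.1% DMSO after 24 h attachment.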

[2] = biological target: T1, CYCLIN K (nuclear staining in CAL-120 cells) (Homo sapiens, UniProt O75909); assay: CYCLIN K nuclear protein level: immunofluorescence high content analysis (CAL-120); format: cell-based; settings: 24 h, 50% reduction of nuclear CCNK staining intensity, median, read-out: CYCLIN K degradation IF, DC50-[mol/l] (median)
T1 construct: endogenous in cells; host or cells: CAL-120 human breast cancer cells (DSMZ ACC 459)
T1 sequence (O75909 whole entry): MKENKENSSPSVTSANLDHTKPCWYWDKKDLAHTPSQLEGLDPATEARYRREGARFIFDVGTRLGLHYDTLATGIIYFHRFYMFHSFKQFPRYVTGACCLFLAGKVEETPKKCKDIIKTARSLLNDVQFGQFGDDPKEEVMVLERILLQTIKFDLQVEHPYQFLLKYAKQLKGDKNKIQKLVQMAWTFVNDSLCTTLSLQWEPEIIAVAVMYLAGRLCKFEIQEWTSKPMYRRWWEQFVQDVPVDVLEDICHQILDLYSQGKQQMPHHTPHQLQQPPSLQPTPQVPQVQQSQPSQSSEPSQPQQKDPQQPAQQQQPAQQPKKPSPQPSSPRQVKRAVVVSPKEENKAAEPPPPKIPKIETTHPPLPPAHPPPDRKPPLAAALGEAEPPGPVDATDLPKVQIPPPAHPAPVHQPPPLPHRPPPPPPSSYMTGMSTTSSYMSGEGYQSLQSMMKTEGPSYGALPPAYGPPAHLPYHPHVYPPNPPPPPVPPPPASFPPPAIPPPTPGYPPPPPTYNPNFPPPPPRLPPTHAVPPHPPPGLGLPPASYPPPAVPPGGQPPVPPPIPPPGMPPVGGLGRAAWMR
T1 sequence (Q9NYV4 whole entry partner): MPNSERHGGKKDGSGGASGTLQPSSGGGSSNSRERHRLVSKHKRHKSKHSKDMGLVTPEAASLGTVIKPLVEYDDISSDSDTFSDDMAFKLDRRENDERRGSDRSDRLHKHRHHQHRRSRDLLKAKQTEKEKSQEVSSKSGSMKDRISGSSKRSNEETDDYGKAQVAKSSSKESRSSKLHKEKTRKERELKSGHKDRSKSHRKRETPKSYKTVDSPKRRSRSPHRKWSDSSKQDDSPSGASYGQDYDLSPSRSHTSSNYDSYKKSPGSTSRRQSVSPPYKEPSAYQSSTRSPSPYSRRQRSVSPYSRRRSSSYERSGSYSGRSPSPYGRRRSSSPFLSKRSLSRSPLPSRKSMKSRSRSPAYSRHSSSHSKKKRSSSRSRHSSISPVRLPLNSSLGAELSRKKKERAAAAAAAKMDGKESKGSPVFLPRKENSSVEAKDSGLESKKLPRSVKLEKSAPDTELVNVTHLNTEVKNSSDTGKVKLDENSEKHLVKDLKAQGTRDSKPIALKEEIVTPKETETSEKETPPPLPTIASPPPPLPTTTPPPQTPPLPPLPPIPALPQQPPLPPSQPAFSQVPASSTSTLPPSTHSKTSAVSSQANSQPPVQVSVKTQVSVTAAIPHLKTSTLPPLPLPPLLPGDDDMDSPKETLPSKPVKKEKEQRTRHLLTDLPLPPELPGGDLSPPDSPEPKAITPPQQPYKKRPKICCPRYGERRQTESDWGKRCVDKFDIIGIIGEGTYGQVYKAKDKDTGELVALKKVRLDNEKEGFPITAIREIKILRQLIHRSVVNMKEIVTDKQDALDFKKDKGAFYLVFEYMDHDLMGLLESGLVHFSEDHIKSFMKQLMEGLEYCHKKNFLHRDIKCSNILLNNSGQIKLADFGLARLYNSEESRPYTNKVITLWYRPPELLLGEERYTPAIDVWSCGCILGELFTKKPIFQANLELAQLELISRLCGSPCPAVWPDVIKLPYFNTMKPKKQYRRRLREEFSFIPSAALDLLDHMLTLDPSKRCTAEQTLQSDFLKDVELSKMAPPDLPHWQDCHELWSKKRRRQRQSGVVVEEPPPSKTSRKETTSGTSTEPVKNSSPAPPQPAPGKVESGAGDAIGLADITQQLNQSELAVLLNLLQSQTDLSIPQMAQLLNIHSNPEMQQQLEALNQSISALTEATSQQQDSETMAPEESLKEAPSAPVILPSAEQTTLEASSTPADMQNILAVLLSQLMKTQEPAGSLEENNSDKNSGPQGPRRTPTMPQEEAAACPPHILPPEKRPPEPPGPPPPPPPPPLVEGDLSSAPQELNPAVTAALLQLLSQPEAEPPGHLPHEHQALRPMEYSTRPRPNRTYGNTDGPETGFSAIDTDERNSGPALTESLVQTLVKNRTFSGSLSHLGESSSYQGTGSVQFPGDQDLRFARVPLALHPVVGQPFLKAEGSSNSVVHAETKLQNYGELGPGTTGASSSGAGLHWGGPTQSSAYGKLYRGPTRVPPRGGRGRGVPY
Summary of the method: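 Readout is automated confocal image analysis of nuclear cyclin K immunofluorescence (Hoechst nuclei) after PFA fixation. Cells were CAL-120, exposed to compound dose-response 24 h at 37 °C; values are DC50 for halving nuclear CCNK signal relative to DMSO and control wells.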

Sequence of CDK12/CycK (Q9NYV4 with tags, fused parts or gaps): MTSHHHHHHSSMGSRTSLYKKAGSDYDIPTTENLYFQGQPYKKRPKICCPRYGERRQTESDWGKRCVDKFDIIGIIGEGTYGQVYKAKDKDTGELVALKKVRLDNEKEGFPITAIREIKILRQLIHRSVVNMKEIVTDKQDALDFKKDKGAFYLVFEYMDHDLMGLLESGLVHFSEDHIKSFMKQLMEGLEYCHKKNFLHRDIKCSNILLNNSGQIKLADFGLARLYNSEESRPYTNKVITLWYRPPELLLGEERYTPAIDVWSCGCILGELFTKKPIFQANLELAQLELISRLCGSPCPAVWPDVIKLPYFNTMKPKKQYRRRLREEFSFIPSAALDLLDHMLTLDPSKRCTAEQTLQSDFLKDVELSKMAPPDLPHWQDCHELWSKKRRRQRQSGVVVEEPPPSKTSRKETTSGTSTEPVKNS
Sequence of CDK12/CycK (O75909 1-300 partner limits assumed): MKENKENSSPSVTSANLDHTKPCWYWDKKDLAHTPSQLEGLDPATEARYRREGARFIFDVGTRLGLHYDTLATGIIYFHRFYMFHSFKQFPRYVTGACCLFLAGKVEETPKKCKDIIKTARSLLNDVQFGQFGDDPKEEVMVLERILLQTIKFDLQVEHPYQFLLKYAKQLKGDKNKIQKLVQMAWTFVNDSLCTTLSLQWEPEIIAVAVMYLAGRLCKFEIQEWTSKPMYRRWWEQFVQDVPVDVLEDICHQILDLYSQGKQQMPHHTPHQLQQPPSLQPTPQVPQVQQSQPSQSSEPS

Row | Structure (SMILES) | IC50 (CDK12/CycK) [nM] | IC50 [1] [nM] | DC50 [2] [nM]
1 | COc1ccccc1-c1cnc(CNc2nc(N3CCOCC3)nc3c(Br)cnn23)[nH]1 [Example 87, 8-bromo-N-{[5-(2-methoxyphenyl)-1H-imidazol-2-yl]methyl}-2-(morpholin-4-yl)pyrazolo[1,5-a][1,3,5]triazin-4-amine] | 2590 | 6.58 | 0.667
2 | Cc1ccccc1-c1cnc(CNc2nc(N3CCOCC3)nc3c(Br)cnn23)[nH]1 [Example 85, 8-bromo-N-{[5-(2-methylphenyl)-1H-imidazol-2-yl]methyl}-2-(morpholin-4-yl)pyrazolo[1,5-a][1,3,5]triazin-4-amine] | 6330 | 26.3 | 1.2
3 | Brc1cnn2c(NCc3ncc(-c4ccccn4)[nH]3)nc(N3CCOCC3)nc12 [Example 90, 8-bromo-2-(morpholin-4-yl)-N-{[5-(pyridin-2-yl)-1H-imidazol-2-yl]methyl}pyrazolo[1,5-a][1,3,5]triazin-4-amine] | 4420 | 17.4 | 0.357
4 | OCC1COCCN1c1nc(NCc2nc3ccccc3[nH]2)n2ncc(Br)c2n1 (stereo not drawn) [Example 67, (4-{4-[(1H-benzimidazol-2-ylmethyl)amino]-8-bromopyrazolo[1,5-a][1,3,5]triazin-2-yl}morpholin-3-yl)methanol] | 2740 | 20.8 | 0.814
5 | Brc1cnn2c(NCc3nnc(-c4ccccc4)[nH]3)nc(N3CC4(COC4)C3)nc12 [Example 65, 8-bromo-2-(2-oxa-6-azaspiro[3.3]heptan-6-yl)-N-[(5-phenyl-4H-1,2,4-triazol-3-yl)methyl]pyrazolo[1,5-a][1,3,5]triazin-4-amine] | > 5710 | 10 | 16.4
6 | OC[C@H]1CCCCN1c1nc(NCc2nnc(-c3ccccc3)[nH]2)n2ncc(Br)c2n1 [Example 71, [(2R)-1-(8-bromo-4-{[(5-phenyl-4H-1,2,4-triazol-3-yl)methyl]amino}pyrazolo[1,5-a][1,3,5]triazin-2-yl)piperidin-2-yl]methanol] | 4330 | 32 | 2.77
7 | CC1(C)CN(c2nc(NCc3nnc(-c4ccccc4)[nH]3)n3ncc(Br)c3n2)CCO1 [Example 68, 8-bromo-2-(2,2-dimethylmorpholin-4-yl)-N-[(5-phenyl-4H-1,2,4-triazol-3-yl)methyl]pyrazolo[1,5-a][1,3,5]triazin-4-amine] | 5520 | 40.2 | 2.85
8 | Fc1ccccc1-c1nnc(CNc2nc(N3CCOCC3)nc3c(Br)cnn23)[nH]1 [Example 75, 8-bromo-N-{[5-(2-fluorophenyl)-4H-1,2,4-triazol-3-yl]methyl}-2-(morpholin-4-yl)pyrazolo[1,5-a][1,3,5]triazin-4-amine] | > 3770 | 53.2 | 8.7
9 | COC1CCN(c2nc(NCc3nnc(-c4ccccc4)[nH]3)n3ncc(Br)c3n2)CC1 [Example 76, 8-bromo-2-(4-methoxypiperidin-1-yl)-N-[(5-phenyl-4H-1,2,4-triazol-3-yl)methyl]pyrazolo[1,5-a][1,3,5]triazin-4-amine] | > 5330 | 110 | 8.06
10 | FC(F)(F)Oc1ccccc1-c1cnc(CNc2nc(N3CCOCC3)nc3c(Br)cnn23)[nH]1 [Example 89, 8-bromo-2-(morpholin-4-yl)-N-({5-[2-(trifluoromethoxy)phenyl]-1H-imidazol-2-yl}methyl)pyrazolo[1,5-a][1,3,5]triazin-4-amine] | 10700 | 32.9 | 1.43

Now those with a lower IC50 (CDK12/CycK), led by results:

Row | IC50 (CDK12/CycK) [nM] | IC50 [1] [nM] | DC50 [2] [nM] | Structure (SMILES)
11 | 916 | 85.2 | 14.2 | FC(F)(F)Oc1cccc(-c2cnc(CNc3nc(N4CCOCC4)nc4c(Br)cnn34)[nH]2)c1 [Example 82, 8-bromo-2-(morpholin-4-yl)-N-({5-[3-(trifluoromethoxy)phenyl]-1H-imidazol-2-yl}methyl)pyrazolo[1,5-a][1,3,5]triazin-4-amine]
12 | 547 | 32.4 | 11.4 | Clc1ccc(-c2cnc(CNc3nc(N4CCOCC4)nc4c(Br)cnn34)[nH]2)cc1 [Example 72, 8-bromo-N-{[5-(4-chlorophenyl)-1H-imidazol-2-yl]methyl}-2-(morpholin-4-yl)pyrazolo[1,5-a][1,3,5]triazin-4-amine]
13 | 2090 | 107 | 11.8 | Brc1cnn2c(NCc3ncc(-c4cccnc4)[nH]3)nc(N3CCOCC3)nc12 [Example 84, 8-bromo-2-(morpholin-4-yl)-N-{[5-(pyridin-3-yl)-1H-imidazol-2-yl]methyl}pyrazolo[1,5-a][1,3,5]triazin-4-amine]
14 | 765 | 4.14 | 3.87 | Clc1cccc(-c2cnc(CNc3nc(N4CCOCC4)nc4c(Br)cnn34)[nH]2)c1 [Example 81, 8-bromo-N-{[5-(3-chlorophenyl)-1H-imidazol-2-yl]methyl}-2-(morpholin-4-yl)pyrazolo[1,5-a][1,3,5]triazin-4-amine]
15 | 1890 | 14.4 | 0.576 | Fc1ccccc1-c1cnc(CNc2nc(N3CCOCC3)nc3c(Br)cnn23)[nH]1 [Example 86, 8-bromo-N-{[5-(2-fluorophenyl)-1H-imidazol-2-yl]methyl}-2-(morpholin-4-yl)pyrazolo[1,5-a][1,3,5]triazin-4-amine]
16 | 664 | 23 | 0.735 | C[C@@H]1CN(c2nc(NCc3nc4ccccc4[nH]3)n3ncc(Br)c3n2)C[C@H](C)O1 [Example 73, N-[(1H-benzimidazol-2-yl)methyl]-8-bromo-2-[(2R,6S)-2,6-dimethylmorpholin-4-yl]pyrazolo[1,5-a][1,3,5]triazin-4-amine]
17 | 1040 | 12.1 | 1.78 | FC(F)(F)c1cccc(-c2cnc(CNc3nc(N4CCOCC4)nc4c(Br)cnn34)[nH]2)c1 [Example 83, 8-bromo-2-(morpholin-4-yl)-N-({5-[3-(trifluoromethyl)phenyl]-1H-imidazol-2-yl}methyl)pyrazolo[1,5-a][1,3,5]triazin-4-amine]
18 | 726 | 25.7 | 1.61 | C[C@@H]1CN(c2nc(NCc3nnc(-c4ccccc4)[nH]3)n3ncc(Br)c3n2)C[C@H](C)O1 [Example 78, 8-bromo-2-[(2R,6S)-2,6-dimethylmorpholin-4-yl]-N-[(5-phenyl-4H-1,2,4-triazol-3-yl)methyl]pyrazolo[1,5-a][1,3,5]triazin-4-amine]
19 | 1020 | 230 | 2.45 | Fc1ccc(-c2cnc(CNc3nc(N4CCOCC4)nc4c(Br)cnn34)[nH]2)cc1 [Example 66, 8-bromo-N-{[5-(4-fluorophenyl)-1H-imidazol-2-yl]methyl}-2-(morpholin-4-yl)pyrazolo[1,5-a][1,3,5]triazin-4-amine]

From patent US20230117034A1, “PYRAZOLOTRIAZINES” (Bayer Aktiengesellschaft, priority 2019, published 2023)
